pIC50: −log10 of the molar value.
Target: NACHT, LRR and PYD domains-containing protein 3 (Homo sapiens, UniProt Q96P20)
Assay: Inhibition of NLRP3 inflammasome activation in PMA-differentiated human THP-1 cells assessed as reduction in IL-1beta secretion preincubated for 20 hrs followed by nigericin addition and measured after 3 hrs by HTRF assay
Assay type: cell-based

NACHT, LRR and PYD domains-containing protein 3, sequence (Q96P20 whole entry, the tested form may be a part): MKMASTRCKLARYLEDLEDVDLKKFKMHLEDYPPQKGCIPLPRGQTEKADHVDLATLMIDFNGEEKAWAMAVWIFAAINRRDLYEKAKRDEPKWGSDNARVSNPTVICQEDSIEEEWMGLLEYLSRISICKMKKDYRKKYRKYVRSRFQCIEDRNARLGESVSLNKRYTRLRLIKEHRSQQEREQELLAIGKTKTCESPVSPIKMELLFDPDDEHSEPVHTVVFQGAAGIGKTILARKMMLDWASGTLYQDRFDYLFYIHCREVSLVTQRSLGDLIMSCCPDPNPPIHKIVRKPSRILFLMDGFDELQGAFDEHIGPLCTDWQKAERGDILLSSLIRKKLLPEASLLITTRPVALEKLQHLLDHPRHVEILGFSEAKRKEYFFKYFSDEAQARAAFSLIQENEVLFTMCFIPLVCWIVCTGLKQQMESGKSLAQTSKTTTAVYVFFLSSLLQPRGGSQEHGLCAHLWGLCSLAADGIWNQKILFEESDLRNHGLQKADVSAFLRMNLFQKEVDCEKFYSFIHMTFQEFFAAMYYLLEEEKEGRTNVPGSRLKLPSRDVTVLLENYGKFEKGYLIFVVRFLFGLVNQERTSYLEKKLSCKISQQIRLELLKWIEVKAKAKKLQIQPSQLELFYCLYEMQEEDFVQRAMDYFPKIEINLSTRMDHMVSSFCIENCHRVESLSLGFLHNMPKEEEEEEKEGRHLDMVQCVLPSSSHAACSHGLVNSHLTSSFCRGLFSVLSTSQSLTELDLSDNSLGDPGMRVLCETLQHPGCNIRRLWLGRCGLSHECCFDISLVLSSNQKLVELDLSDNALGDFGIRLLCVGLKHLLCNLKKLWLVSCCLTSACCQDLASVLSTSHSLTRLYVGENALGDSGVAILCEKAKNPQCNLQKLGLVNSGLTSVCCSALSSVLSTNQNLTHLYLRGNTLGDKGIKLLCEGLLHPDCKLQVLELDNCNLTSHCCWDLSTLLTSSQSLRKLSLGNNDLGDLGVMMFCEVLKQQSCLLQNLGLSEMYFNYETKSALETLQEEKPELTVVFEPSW

pIC50, > 9.00:
Cc1cc(O)c(-c2nnc(N[C@@H]3CCCN(C)C3)nc2C)c(F)c1
Cc1nc(N[C@@H]2CCCN(C)C2)nnc1-c1ccc(Cl)cc1O
COc1ccc(-c2nnc(N[C@@H]3CCCN(C)C3)nc2C)c(O)c1
Cc1nc(N[C@@H]2CCCN(C)C2)nnc1-c1ccc(C(F)(F)F)cc1O
COc1cc(O)c(-c2nnc(N[C@@H]3CCCN(C)C3)nc2C)c(F)c1
Cc1nc(N[C@@H]2CCCN(C)C2)nnc1-c1ccc(C2CC2)cc1O

Source: ChEMBL document CHEMBL5257145, “1,2,4-Triazine Derivatives as NLRP3 Inhibitors for Treating Diseases” (ACS Med Chem Lett, 2023)
